Test results taken from patent US4093720A, “Novel-17-spirosultines their corresponding hydroxy acids and compositions thereof” (Roussel Uclaf, priority 1976, dated 1978).

What was measured:
[1] = target: T1, androgen receptors (Rattus norvegicus, UniProt P15207); test: Affinity for androgenic receptors (hormonal receptor test, rat prostate cytosol, tritiated product R); type: binding, rats; settings: for affinity for androgen receptors (in words): conclusion from Table II; for RLA (relative affinity = 100 × CT/CX): prostate cytosol of castrated male rats, tritiated 17α-methyl-Δ4,9,11-estratriene-17β-ol-3-one, 0° C, 2 hours, testosterone = 100
T1 construct: the prostate was removed from male rats castrated 24 hours earlier and was homogenized in a buffer; from tissue; host or cells: prostate cytosol (105,000g supernatant) of male rats castrated 24 hours earlier
T1 sequence (P15207 1-902): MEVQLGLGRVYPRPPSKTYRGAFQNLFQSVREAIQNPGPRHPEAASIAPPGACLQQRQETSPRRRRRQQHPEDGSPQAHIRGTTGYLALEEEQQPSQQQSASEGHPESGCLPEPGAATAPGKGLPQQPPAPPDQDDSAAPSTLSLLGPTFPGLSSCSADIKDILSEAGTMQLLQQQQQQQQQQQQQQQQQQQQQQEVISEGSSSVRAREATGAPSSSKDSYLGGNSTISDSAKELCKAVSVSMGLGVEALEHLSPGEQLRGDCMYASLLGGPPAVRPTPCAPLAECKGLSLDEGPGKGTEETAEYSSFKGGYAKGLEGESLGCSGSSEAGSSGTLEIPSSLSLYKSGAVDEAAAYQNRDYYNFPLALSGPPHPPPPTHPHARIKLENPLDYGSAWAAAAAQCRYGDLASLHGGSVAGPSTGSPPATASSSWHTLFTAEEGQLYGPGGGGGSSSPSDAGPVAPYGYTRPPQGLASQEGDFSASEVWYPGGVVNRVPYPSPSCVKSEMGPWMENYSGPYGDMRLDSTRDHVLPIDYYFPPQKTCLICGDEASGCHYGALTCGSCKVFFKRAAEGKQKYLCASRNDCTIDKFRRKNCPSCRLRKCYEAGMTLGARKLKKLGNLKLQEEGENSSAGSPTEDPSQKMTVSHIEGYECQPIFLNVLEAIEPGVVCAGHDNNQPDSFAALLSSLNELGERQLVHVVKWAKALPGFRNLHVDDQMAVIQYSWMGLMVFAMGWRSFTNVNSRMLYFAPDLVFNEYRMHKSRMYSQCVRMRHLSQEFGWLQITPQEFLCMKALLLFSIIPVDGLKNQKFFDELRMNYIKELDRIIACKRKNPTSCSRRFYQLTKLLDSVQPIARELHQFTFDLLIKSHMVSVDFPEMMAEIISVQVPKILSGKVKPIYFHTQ
Method: The test used was the hormonal receptor test described by Raynaud et al [J. Ster. Biochem., Vol. 6 (1975), p. 615-622] in which the prostate was removed from male rats castrated 24 hours earlier and was homogenized in a buffer: 10 millimole tromethamine, saccharose 0.25M, HCl for pH of 7.4. The homogenate was centrifuged at 105,000g for one hour and the surnageant liquid or "cytosol" was then adjusted to obtain a dilution of 1/5 (weight/volume). […] At the end of 2 hours, the radioactivity of tritiated product tied to the receptor was determined by the adsorption technique of carbondextran (1.25% to 0.625%).
B/T max. is the percentage of tritiated product R bound when no product was added and B/T min. is the percentage of tritiated product R bound when the mazimum quantity of cold product R is added. The intersections of line I50 and the curves permit the determination of the CT and CX values.

[2] = system: activity of 1 μg/kg of aldosterone monoacetate; test: Antialdosterone activity in surrenalectomized rats; type: in vivo; settings: male Sprague-Dawley surrenalectomized rats; oral dose 5 mg/kg; 1 μg/kg aldosterone monoacetate s.c.; 4 hours urine collection
Method: Male rats of the Sprague-Dawley strain weighing about 180 g were surrenalectomized and at that moment, the rats received with drinking water a physiological serum. […] At the end of 47 hours, the rats received orally either the B isomer of (17R) 6β, 7β-methylene-2'-oxidospiro-(Δ^4 -androstene-17,5'-[1',2']-oxathiolane)-3-one (product A), the B isomer of (17R) 6α, 7α-methylene-2'-oxidospiro-(Δ^4 -androstene-17,5'-[1',2']-oxathiolane)-3-one (product B) or the B isomer of (17R) 7α-methyl-2'-oxidospiro-(Δ^4 -androstene-17,5'-[1',2']-oxathiolane)-3-one (product C) in the form of a solution or suspension in 0.25% carboxymethylcellulose. One hour after the said oral administration, the animals received a hydrosaline overdose by intraperitoned administration of 5 ml of a […] physiological serum per 100 g of body weight and 1 μg/kg of a 2.5% alcoholic solution of aldosterone monoacetate by subcutaneous administration. The animals were placed in diuresis cages without food or drink for 4 hours and at the end of 4 hours, a forced miction was caused by pressure on the bladder. The volume of urine was brought to 50 ml and the amount of sodium and potassium was determined with an autoanalyser.

C[C@]12CCC(=O)C=C1[C@@H]1C[C@@H]1[C@@H]1[C@@H]2CC[C@@]2(C)[C@H]1CC[C@@]21CCS(=O)O1 (single isomer, unassigned) [product A]
affinity for androgen receptors (in words) [1]: little or no affinity | RLA (relative affinity = 100 × CT/CX) [1]: 0 | % inhibition of the activity of aldosterone monoacetate against the urinary sodium/potassium ratio [2]: 25%

C[C@]12CCC(=O)C=C1[C@H]1C[C@H]1[C@@H]1[C@@H]2CC[C@@]2(C)[C@H]1CC[C@@]21CCS(=O)O1 (single isomer, unassigned) [product B]
% inhibition of the activity of aldosterone monoacetate against the urinary sodium/potassium ratio [2]: 19%

C[C@@H]1CC2=CC(=O)CC[C@]2(C)[C@H]2CC[C@@]3(C)[C@@H](CC[C@@]34CCS(=O)O4)[C@H]12 (single isomer, unassigned) [product C]
affinity for androgen receptors (in words) [1]: little or no affinity | RLA (relative affinity = 100 × CT/CX) [1]: 3.6 | % inhibition of the activity of aldosterone monoacetate against the urinary sodium/potassium ratio [2]: 22%
